Laboratory results: patent US7704995B2 (Exelixis, Inc., priority 2003, dated 2010)
Where two headings read alike, the source gives them in different places.

Target: T1, Chk1 (Homo sapiens, UniProt O14757)
T1 construct: purchased Upstate Biotechnology
T1 sequence (O14757 1-476): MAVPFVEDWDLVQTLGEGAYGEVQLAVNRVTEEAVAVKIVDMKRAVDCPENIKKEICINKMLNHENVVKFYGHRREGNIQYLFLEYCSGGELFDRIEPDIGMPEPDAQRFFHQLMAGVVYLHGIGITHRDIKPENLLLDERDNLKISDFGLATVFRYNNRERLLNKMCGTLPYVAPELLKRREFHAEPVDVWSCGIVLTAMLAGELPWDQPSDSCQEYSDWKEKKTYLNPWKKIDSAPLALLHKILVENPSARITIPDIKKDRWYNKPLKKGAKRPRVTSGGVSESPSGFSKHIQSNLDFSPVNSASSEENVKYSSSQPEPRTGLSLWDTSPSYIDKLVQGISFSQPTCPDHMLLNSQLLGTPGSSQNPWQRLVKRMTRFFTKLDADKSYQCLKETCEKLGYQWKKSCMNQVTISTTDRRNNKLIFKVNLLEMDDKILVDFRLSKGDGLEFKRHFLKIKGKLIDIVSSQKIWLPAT
Assay: Chk1 kinase assay: incorporation of γ-33P ATP into immobilized myelin basic protein
Type: biochemical
Settings: read-out: Chk1 IC50
Procedure, shortened: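 Radiometric filter-free format: Chk1 10 nM, 10 μM ATP; Chk2 20 nM, 30 μM ATP; γ-33P ATP tracer; immobilized MBP substrate; Hepes pH 7.6, 10 mM MgCl2, 1 mM DTT; 1 h RT; 1% DMSO. Scintillation counting of washed plates. IC50/Ki from curve fit.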

[1] = Table 11, Chk1 only, class symbols A-D

Row | IC50 [nM] | IC50 [1] [nM] | SMILES | other results
1 | ≥ 10000 |  | CNC(=O)c1nc(-c2noc(C(C)(C)C)n2)cnc1N [Example 74, 3-amino-6-[5-(1,1-dimethylethyl)-1,2,4-oxadiazol-3-yl]-N-methylpyrazine-2-carboxamide] | 
2 |  | < 50 | Nc1ncc(-c2cccc(C(=O)NCc3c(F)ccc(F)c3Cl)c2)nc1C(=O)N[C@H]1CCCNC1 [Example 1014, 3-amino-6-[3-({[(2-chloro-3,6-difluorophenyl)methyl]amino}carbonyl)phenyl]-N-[(3S)-piperidin-3-yl]pyrazine-2-carboxamide] | 
3 |  | 50 to 1000 | CC(C)(C)OC(=O)NCc1cccc(-c2cnc(N)c(C(=O)N[C@H]3CCCN(C(=O)OC(C)(C)C)C3)n2)c1 [Example 833, 1,1-dimethylethyl (3S)-3-{[(3-amino-6-{3-[({[(1,1-dimethylethyl)oxy]carbonyl}amino)methyl]phenyl}pyrazin-2-yl)carbonyl]amino}piperidine-1-carboxylate] | 
4 |  |  | CC(C)(C)OC(=O)N1CCC[C@@H]1CN1CC[C@H](NC(=O)c2nc(-c3cccc(C(=O)NCc4ccccc4)c3)cnc2N)C1 [Example 688, 1,1-dimethylethyl (2R)-2-{[(3S)-3-({[3-amino-6-(3-{[(phenylmethyl)amino]carbonyl}phenyl)pyrazin-2-yl]carbonyl}amino)pyrrolidin-1-yl]methyl}pyrrolidine-1-carboxylate] | IC50 (Table 11, Chk1 only): ≥ 10000 nM
5 |  |  | Nc1ncc(-c2cccc(CNC3CCc4ccccc43)c2)nc1C(=O)NCc1ccc2ccccc2c1 (centres unmarked) [Example 532, 3-amino-6-{3-[(2,3-dihydro-1H-inden-1-ylamino)methyl]phenyl}-N-(naphthalen-2-ylmethyl)pyrazine-2-carboxamide] | IC50 (Table 11, Chk1 only): ≥ 10000 nM
6 |  | 50 to 1000 | Nc1ncc(-c2cccc(CNS(=O)(=O)c3ccc(OC(F)(F)F)cc3)c2)nc1C(=O)N[C@H]1CCCNC1 [Example 916, 3-amino-N-[(3S)-piperidin-3-yl]-6-(3-{[({4-[(trifluoromethyl)oxy]phenyl}sulfonyl)amino]methyl}phenyl)pyrazine-2-carboxamide] | 
7 | 50 to 1000 |  | CNC(=O)c1nc(-c2cccc(C(=O)NC3Cc4ccccc4C3)c2)cnc1N [Example 104, 3-amino-6-{3-[(2,3-dihydro-1H-inden-2-ylamino)carbonyl]phenyl}-N-methylpyrazine-2-carboxamide] | 
8 |  |  | COc1ccc(C(=O)c2nc(-c3cccc(C(=O)NCc4ccccc4)c3)cnc2N)c(OC)c1 [Example 588, 3-(5-amino-6-{[2,4-bis(methyloxy)phenyl]carbonyl}pyrazin-2-yl)-N-(phenylmethyl)benzamide] | IC50 (Table 11, Chk1 only): ≥ 10000 nM
9 |  |  | CNC(=O)c1nc(-c2cccc(CNC3CCc4cc(OCCN5CCOCC5)ccc43)c2)cnc1N (centres unmarked) [Example 505, 3-amino-N-methyl-6-{3-[({5-[(2-morpholin-4-ylethyl)oxy]-2,3-dihydro-1H-inden-1-yl}amino)methyl]phenyl}pyrazine-2-carboxamide] | IC50 (Table 11, Chk1 only): 50 to 1000 nM
10 | 50 to 1000 |  | CNC(=O)c1nc(-c2cccc(NC(=O)Cc3ccc(C(F)(F)F)cc3)c2)cnc1N [Example 211, 3-amino-N-methyl-6-[3-({[4-(trifluoromethyl)phenyl]acetyl}amino)phenyl]pyrazine-2-carboxamide] | 
11 |  | < 50 | Nc1ncc(-c2cccc(NC(=O)c3cc(-c4ccc(Cl)cc4)cs3)c2)nc1C(=O)N[C@H]1CCCNC1 [Example 891, 3-amino-6-[3-({[4-(4-chlorophenyl)-2-thienyl]carbonyl}amino)phenyl]-N-[(3S)-piperidin-3-yl]pyrazine-2-carboxamide] | 
12 |  |  | CC(C)(C)OC(=O)N1CCC[C@@H](NC(=O)c2nc(-c3cccc(C(=O)N[C@@H]4c5ccccc5C[C@@H]4O)c3)cnc2N)C1 [Example 795, 1,1-dimethylethyl (3R)-3-[({3-amino-6-[3-({[(1R,2S)-2-hydroxy-2,3-dihydro-1H-inden-1-yl]amino}carbonyl)phenyl]pyrazin-2-yl}carbonyl)amino]piperidine-1-carboxylate] | IC50 (Table 11, Chk1 only): ≥ 10000 nM
13 |  | < 50 | Nc1ncc(-c2cccc(NC(=O)Cc3c(F)c(F)c(F)c(F)c3F)c2)nc1C(=O)N[C@H]1CCCNC1 [Example 887, 3-amino-6-(3-{[(pentafluorophenyl)acetyl]amino}phenyl)-N-[(3S)-piperidin-3-yl]pyrazine-2-carboxamide] | 
14 | 50 to 1000 |  | CCOc1ccccc1CNC(=O)c1cccc(-c2cnc(N)c(C(=O)NC)n2)c1 [Example 246, 3-amino-6-{3-[({[2-(ethyloxy)phenyl]methyl}amino)carbonyl]phenyl}-N-methylpyrazine-2-carboxamide] | 
15 | 50 to 1000 |  | CNC(=O)c1nc(-c2cccc(OCCN(C)Cc3ccccc3)c2)cnc1N [Example 183, 3-amino-N-methyl-6-[3-({2-[methyl(phenylmethyl)amino]ethyl}oxy)phenyl]pyrazine-2-carboxamide] | 
16 | 1000 to 10000 |  | CNC(=O)c1nc(-c2cccc(OCCN3CCC(C)CC3)c2)cnc1N [Example 175, 3-amino-N-methyl-6-(3-{[2-(4-methylpiperidin-1-yl)ethyl]oxy}phenyl)pyrazine-2-carboxamide] | 
17 | 1000 to 10000 |  | CNC(=O)c1nc(-c2ccc(NS(C)(=O)=O)cc2)cnc1N [Example 77, 3-amino-N-methyl-6-{4-[(methylsulfonyl)amino]phenyl}pyrazine-2-carboxamide] | 
18 | 50 to 1000 |  | CNC(=O)c1nc(-c2cccc(C(=O)NCc3cc(OC)cc(OC)c3)c2)cnc1N [Example 254, 3-amino-6-{3-[({[3,5-bis(methyloxy)phenyl]methyl}amino)carbonyl]phenyl}-N-methylpyrazine-2-carboxamide] | 
19 |  | < 50 | Nc1ncc(-c2cccc(C(=O)NCc3cc(F)cc(F)c3)c2)nc1C(=O)N[C@H]1CCCCNC1 [Example 1009, 3-amino-N-[(3S)-azepan-3-yl]-6-[3-({[(3,5-difluorophenyl)methyl]amino}carbonyl)phenyl]pyrazine-2-carboxamide] | 
20 | 50 to 1000 |  | CNC(=O)c1nc(-c2cccc(NC(=O)C3CCCC3)c2)cnc1N [Example 166, 3-amino-6-{3-[(cyclopentylcarbonyl)amino]phenyl}-N-methylpyrazine-2-carboxamide] | 
21 | 50 to 1000 |  | CNC(=O)c1nc(-c2cccc(C(=O)Nc3ccc(OC)cc3)c2)cnc1N [Example 222, 3-amino-N-methyl-6-[3-({[4-(methyloxy)phenyl]amino}carbonyl)phenyl]pyrazine-2-carboxamide] | 
22 |  | < 50 | CCOc1cccc(-c2cnc(N)c(C(=O)N[C@H]3CCCNC3)n2)c1 [Example 962, 3-amino-6-[3-(ethyloxy)phenyl]-N-[(3S)-piperidin-3-yl]pyrazine-2-carboxamide] | 
23 |  |  | Nc1ncc(-c2cccc(C(=O)N[C@H]3CCc4ccccc43)c2)nc1C(=O)NC1CCCNC1 (stereo partly drawn) [Example 729, 3-amino-6-(3-{[(1S)-2,3-dihydro-1H-inden-1-ylamino]carbonyl}phenyl)-N-piperidin-3-ylpyrazine-2-carboxamide] | IC50 (Table 11, Chk1 only): < 50 nM
24 | 50 to 1000 |  | CNC(=O)c1nc(-c2cccs2)cnc1N [Example 268, 3-amino-N-methyl-6-(2-thienyl)pyrazine-2-carboxamide] | 
25 |  | < 50 | Nc1ncc(-c2cccc(C(=O)NCc3ccc(Br)cc3)c2)nc1C(=O)N[C@H]1CCCNC1 [Example 870, 3-amino-6-[3-({[(4-bromophenyl)methyl]amino}carbonyl)phenyl]-N-[(3S)-piperidin-3-yl]pyrazine-2-carboxamide] | 

Row | SMILES | IC50 [nM] | IC50 [1] [nM] | other results
26 | CNC(=O)c1cc(-c2cccc(CO)c2)cnc1N [Example 35] | 50 to 1000 |  | 
